Laboratory results published in paper PMC12090182, “Repurposing of the RIPK1-Selective Benzo[1,4]oxazepin-4-one Scaffold for the Development of a Type III LIMK1/2 Inhibitor” (ACS Chemical Biology, 2025).

Legend:
Assay type in all cases: binding
FGFR3(G697C) = FGFR3(G697C) (Homo sapiens, UniProt P22607, G697C); assay: biochemical; conditions: compound concentration 100 nM; Entrez FGFR3; read-out: Percent Control
PAK4A = PAK4A (Homo sapiens, UniProt O96013); assay: DSF selectivity screening; conditions: 10 μM compound
Method in brief: (§1)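 Read-out is the inflection point of the unfolding transition, fitted with the Boltzmann equation from SYPRO Orange fluorescence (465/590 nm). Samples held 2 μM recombinant kinase domain and 10 μM test compound in HEPES pH 7.5 buffer with 500 mM NaCl, heated at 3 °C per minute.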

AKT3A = AKT3A (Homo sapiens, UniProt Q9Y243); assay: DSF selectivity screening; conditions: 10 μM compound
Method in brief: as §1

FGFR2A = FGFR2A (Homo sapiens, UniProt P21802); assay: DSF selectivity screening; conditions: 10 μM compound
Method in brief: as §1

DYRK1AA = DYRK1AA (Homo sapiens, UniProt Q13627); assay: DSF selectivity screening; conditions: 10 μM compound
Method in brief: as §1

NEK2 = NEK2 (Homo sapiens, UniProt P51955); assay: DSF selectivity screening; conditions: 10 μM compound
Method in brief: as §1

ABL1A = ABL1A (Homo sapiens, UniProt P00519); assay: DSF selectivity screening; conditions: 10 μM compound
Sequence of ABL1A (P00519 229-500): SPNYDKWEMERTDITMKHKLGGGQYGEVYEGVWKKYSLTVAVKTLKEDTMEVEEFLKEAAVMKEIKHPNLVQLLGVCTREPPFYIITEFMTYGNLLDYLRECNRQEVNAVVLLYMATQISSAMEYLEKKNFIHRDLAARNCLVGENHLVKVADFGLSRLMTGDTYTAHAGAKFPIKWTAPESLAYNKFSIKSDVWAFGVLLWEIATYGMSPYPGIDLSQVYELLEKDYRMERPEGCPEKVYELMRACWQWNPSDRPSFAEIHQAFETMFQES
Method in brief: as §1

CAMK1GA = CAMK1GA (Homo sapiens, UniProt Q96NX5); assay: DSF selectivity screening; conditions: 10 μM compound
Sequence of CAMK1GA (Q96NX5 whole entry): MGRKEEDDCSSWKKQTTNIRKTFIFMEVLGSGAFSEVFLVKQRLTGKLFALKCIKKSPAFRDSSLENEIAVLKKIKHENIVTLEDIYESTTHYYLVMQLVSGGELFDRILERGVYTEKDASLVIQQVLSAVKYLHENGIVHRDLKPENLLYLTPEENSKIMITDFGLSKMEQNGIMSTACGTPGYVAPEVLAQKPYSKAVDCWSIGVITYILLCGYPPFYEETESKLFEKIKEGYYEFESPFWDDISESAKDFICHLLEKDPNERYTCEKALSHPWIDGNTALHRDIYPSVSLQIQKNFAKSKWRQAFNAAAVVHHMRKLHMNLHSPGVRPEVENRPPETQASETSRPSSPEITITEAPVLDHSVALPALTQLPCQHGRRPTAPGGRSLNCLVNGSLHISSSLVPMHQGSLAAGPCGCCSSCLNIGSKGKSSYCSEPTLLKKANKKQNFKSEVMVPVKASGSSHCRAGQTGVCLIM
Method in brief: as §1

CHEK2A = CHEK2A (Homo sapiens, UniProt O96017); assay: DSF selectivity screening; conditions: 10 μM compound
Method in brief: as §1

FECH = FECH (Homo sapiens, UniProt P22830); assay: DSF selectivity screening; conditions: 10 μM compound
Method in brief: as §1

AAK1A = AAK1A (Homo sapiens, UniProt Q2M2I8); assay: DSF selectivity screening; conditions: 10 μM compound
Method in brief: as §1

CSNK2A1A = CSNK2A1A (Homo sapiens, UniProt P68400); assay: DSF selectivity screening; conditions: 10 μM compound
Method in brief: as §1

FGFR3A = FGFR3A (Homo sapiens, UniProt P22607); assay: DSF selectivity screening; conditions: 10 μM compound
Sequence of FGFR3A (P22607 23-806): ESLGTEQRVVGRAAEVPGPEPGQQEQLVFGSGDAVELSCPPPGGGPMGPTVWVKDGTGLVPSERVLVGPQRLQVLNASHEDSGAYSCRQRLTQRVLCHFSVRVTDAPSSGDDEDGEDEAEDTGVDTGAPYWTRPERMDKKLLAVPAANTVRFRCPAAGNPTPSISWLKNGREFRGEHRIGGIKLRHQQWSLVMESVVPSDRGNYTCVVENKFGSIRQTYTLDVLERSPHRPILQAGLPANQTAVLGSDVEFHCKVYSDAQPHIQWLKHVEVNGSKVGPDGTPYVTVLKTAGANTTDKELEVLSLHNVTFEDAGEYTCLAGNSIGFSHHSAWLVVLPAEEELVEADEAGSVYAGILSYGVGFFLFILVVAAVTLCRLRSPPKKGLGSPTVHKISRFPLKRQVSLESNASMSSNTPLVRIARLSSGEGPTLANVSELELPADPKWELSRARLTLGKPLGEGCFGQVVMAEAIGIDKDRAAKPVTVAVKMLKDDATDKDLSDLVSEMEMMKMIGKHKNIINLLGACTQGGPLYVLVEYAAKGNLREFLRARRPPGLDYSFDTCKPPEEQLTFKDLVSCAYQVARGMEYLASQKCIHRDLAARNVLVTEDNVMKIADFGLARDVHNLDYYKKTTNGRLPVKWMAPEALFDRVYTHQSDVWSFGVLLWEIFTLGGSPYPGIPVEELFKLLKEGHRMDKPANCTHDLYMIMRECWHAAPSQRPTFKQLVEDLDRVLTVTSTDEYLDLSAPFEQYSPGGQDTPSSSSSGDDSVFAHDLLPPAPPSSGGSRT
Method in brief: as §1

GSK3BB = GSK3BB (Homo sapiens, UniProt P49841); assay: DSF selectivity screening; conditions: 10 μM compound
Sequence of GSK3BB (P49841 35-386): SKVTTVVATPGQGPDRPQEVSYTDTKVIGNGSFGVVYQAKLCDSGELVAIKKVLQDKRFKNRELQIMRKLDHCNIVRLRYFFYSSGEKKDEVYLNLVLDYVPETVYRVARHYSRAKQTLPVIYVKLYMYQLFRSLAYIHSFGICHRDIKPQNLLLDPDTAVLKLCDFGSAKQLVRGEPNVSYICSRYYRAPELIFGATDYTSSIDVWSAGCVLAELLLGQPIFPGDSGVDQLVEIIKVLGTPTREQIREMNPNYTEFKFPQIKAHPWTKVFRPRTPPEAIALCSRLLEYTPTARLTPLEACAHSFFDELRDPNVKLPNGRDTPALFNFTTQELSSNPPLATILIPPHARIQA
Method in brief: as §1

TLK1A = TLK1A (Homo sapiens, UniProt Q9UKI8); assay: DSF selectivity screening; conditions: 10 μM compound
Method in brief: as §1

DAPK1A = DAPK1A (Homo sapiens, UniProt P53355); assay: DSF selectivity screening; conditions: 10 μM compound
Sequence of DAPK1A (P53355 1-285): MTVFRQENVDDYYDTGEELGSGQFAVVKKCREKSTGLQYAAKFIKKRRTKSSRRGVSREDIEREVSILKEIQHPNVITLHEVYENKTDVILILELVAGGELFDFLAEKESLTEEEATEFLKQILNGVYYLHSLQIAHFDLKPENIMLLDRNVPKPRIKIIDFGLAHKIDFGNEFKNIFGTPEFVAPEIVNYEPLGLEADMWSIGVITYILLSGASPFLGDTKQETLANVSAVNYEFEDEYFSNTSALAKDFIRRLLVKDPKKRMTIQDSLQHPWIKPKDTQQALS
Method in brief: as §1

STK4A = STK4A (Homo sapiens, UniProt Q13043); assay: DSF selectivity screening; conditions: 10 μM compound
Sequence of STK4A (Q13043 30-281): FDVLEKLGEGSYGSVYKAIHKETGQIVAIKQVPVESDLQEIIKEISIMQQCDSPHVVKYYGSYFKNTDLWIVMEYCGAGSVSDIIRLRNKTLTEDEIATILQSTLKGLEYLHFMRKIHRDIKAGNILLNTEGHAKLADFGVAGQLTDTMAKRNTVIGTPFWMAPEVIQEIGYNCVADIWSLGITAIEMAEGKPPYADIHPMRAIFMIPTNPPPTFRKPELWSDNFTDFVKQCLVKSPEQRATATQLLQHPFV
Method in brief: as §1

MAP2K6A = MAP2K6A (Homo sapiens, UniProt P52564); assay: DSF selectivity screening; conditions: 10 μM compound
Method in brief: as §1

STK17AA = STK17AA (Homo sapiens, UniProt Q9UEE5); assay: DSF selectivity screening; conditions: 10 μM compound
Method in brief: as §1

STK10A = STK10A (Homo sapiens, UniProt O94804); assay: DSF selectivity screening; conditions: 10 μM compound
Method in brief: as §1

GPRK5A = GPRK5A (Homo sapiens, UniProt P34947); assay: DSF selectivity screening; conditions: 10 μM compound
Sequence of GPRK5A (P34947 186-514): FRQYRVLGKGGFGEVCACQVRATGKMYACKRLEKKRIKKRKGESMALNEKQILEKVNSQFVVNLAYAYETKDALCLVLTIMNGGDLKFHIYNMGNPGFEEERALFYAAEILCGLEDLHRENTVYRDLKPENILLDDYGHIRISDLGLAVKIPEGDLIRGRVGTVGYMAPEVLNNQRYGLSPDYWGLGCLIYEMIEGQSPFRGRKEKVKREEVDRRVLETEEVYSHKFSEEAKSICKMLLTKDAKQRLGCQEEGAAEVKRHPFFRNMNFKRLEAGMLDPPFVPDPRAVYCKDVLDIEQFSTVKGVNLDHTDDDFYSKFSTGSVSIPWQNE
Method in brief: as §1

CDKL1A = CDKL1A (Homo sapiens, UniProt Q00532); assay: DSF selectivity screening; conditions: 10 μM compound
Sequence of CDKL1A (Q00532 whole entry): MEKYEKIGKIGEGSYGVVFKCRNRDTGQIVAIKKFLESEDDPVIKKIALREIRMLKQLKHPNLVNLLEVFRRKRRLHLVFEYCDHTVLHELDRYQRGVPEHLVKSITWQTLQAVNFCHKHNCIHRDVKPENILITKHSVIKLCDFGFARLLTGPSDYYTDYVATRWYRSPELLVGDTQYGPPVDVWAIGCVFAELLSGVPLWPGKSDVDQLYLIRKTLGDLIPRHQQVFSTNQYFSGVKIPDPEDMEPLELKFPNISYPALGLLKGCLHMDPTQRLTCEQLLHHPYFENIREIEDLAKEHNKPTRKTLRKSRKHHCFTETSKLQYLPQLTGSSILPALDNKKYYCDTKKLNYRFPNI
Method in brief: as §1

PKMYT1A = PKMYT1A (Homo sapiens, UniProt Q99640); assay: DSF selectivity screening; conditions: 10 μM compound
Method in brief: as §1

BMP2KA = BMP2KA (Homo sapiens, UniProt Q9NSY1); assay: DSF selectivity screening; conditions: 10 μM compound
Method in brief: as §1

DAPK3A = DAPK3A (Homo sapiens, UniProt O43293); assay: DSF selectivity screening; conditions: 10 μM compound
Method in brief: as §1

TOPKA = TOPKA (Homo sapiens, UniProt Q96KB5); assay: DSF selectivity screening; conditions: 10 μM compound
Method in brief: as §1

FESA = FESA (Homo sapiens, UniProt P07332); assay: DSF selectivity screening; conditions: 10 μM compound
Method in brief: as §1

HIPK2 = HIPK2 (Homo sapiens, UniProt Q9H2X6); assay: DSF selectivity screening; conditions: 10 μM compound
Method in brief: as §1

VRK1A = VRK1A (Homo sapiens, UniProt Q99986); assay: DSF selectivity screening; conditions: 10 μM compound
Sequence of VRK1A (Q99986 whole entry): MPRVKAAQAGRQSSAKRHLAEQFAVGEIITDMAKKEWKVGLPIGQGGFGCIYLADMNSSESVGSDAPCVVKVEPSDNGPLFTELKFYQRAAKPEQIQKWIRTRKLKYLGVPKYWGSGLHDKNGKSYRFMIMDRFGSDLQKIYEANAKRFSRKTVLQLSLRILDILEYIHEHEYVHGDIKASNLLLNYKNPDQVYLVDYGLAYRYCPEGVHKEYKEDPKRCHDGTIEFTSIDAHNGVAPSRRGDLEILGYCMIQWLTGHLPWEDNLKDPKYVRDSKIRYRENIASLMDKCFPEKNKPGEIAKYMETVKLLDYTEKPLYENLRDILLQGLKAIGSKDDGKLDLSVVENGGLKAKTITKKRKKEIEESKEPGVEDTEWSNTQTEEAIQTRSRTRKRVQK
Method in brief: as §1

PDK4A = PDK4A (Homo sapiens, UniProt Q16654); assay: DSF selectivity screening; conditions: 10 μM compound
Method in brief: as §1

MELKA = MELKA (Homo sapiens, UniProt Q14680); assay: DSF selectivity screening; conditions: 10 μM compound
Sequence of MELKA (Q14680 1-340): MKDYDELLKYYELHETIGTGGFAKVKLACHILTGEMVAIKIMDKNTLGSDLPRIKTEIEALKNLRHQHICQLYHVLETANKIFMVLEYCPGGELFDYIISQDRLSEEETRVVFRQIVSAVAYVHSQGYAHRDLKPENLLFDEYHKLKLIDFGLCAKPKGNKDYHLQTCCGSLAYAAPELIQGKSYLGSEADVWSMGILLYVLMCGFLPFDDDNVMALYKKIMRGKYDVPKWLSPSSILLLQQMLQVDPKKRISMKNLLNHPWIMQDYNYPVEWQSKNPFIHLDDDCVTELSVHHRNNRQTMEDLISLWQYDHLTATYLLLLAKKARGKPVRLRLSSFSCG
Method in brief: as §1

STK3A = STK3A (Homo sapiens, UniProt Q13188); assay: DSF selectivity screening; conditions: 10 μM compound
Method in brief: as §1

MAPK1A = MAPK1A (Homo sapiens, UniProt P28482); assay: DSF selectivity screening; conditions: 10 μM compound
Method in brief: as §1

RPS6KA1A = assay: DSF selectivity screening; conditions: 10 μM compound
Method in brief: as §1

CAMK1DA = CAMK1DA (Homo sapiens, UniProt Q8IU85); assay: DSF selectivity screening; conditions: 10 μM compound
Method in brief: as §1

FLT3(K663Q) = FLT3(K663Q) (Homo sapiens, UniProt P36888, K663Q); assay: biochemical; conditions: 1000 nM, read-out: Percent Control
[1] = biological target: 468 kinases including some pathogenic mutants (Homo sapiens, UniProt Q13188); assay: biochemical; conditions: MST2 (Entrez STK3), 100 nM; read-out: Percent Control
[2] = biological target: 468 kinases including some pathogenic mutants (Homo sapiens, UniProt P42336, Q546K); assay: biochemical; conditions: read-out: Percent Control
Sequence of 468 kinases including some pathogenic mutants (Homo sapiens, UniProt P42336, Q546K) (P42336 whole entry Q546K): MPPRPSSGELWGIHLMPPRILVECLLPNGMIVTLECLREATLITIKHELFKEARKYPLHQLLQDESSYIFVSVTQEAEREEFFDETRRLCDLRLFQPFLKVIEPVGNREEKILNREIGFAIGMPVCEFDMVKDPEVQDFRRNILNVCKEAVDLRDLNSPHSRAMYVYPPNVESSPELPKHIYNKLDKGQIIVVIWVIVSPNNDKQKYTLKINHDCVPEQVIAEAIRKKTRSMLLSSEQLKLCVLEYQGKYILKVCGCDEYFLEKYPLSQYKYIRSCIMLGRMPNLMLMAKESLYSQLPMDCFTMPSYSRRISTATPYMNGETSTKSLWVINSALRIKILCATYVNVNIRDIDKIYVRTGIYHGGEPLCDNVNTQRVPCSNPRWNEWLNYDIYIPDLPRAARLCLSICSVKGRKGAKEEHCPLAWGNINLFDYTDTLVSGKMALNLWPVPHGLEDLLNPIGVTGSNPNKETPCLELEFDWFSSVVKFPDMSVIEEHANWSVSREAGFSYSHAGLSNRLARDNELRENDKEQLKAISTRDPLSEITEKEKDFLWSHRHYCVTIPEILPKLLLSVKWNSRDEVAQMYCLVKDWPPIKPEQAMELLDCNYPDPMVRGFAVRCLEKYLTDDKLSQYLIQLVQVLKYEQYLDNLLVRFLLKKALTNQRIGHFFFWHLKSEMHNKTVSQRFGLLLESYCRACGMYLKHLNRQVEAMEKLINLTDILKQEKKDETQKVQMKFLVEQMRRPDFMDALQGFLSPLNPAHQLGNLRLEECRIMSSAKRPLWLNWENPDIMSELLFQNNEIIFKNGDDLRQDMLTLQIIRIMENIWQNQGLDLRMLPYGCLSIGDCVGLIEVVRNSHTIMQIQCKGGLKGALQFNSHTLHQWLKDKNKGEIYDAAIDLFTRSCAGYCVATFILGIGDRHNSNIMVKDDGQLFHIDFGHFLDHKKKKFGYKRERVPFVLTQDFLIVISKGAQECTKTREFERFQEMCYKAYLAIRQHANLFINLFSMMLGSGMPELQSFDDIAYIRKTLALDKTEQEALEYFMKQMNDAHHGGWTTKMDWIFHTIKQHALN

Sequence of FGFR3(G697C) (P22607 23-806 G697C): as the sequence (P22607 23-806) above, with G675C counted along it

CN1C(=O)[C@@H](N2CCc3c(nn(Cc4ccccc4)c3C(N)=O)C2=O)COc2cc(Cl)ccc21 [Compound 10, (S)-2-benzyl-6-(8-chloro-5-methyl-4-oxo-2,3,4,5-tetrahydrobenzo[b][1,4]oxazepin-3-yl)-7-oxo-4,5,6,7-tetrahydro-2H-pyrazolo[3,4-c]pyridine-3-carboxamide]
remaining activity at 0.1 µM (FGFR3(G697C)): 92% | ΔTm at 10 µM (PAK4A): 0.1 °C | ΔTm at 10 µM (AKT3A): 0 °C | ΔTm at 10 µM (FGFR2A): 0.1 °C | ΔTm at 10 µM (DYRK1AA): 0 °C | ΔTm at 10 µM (NEK2): 1.3 °C | ΔTm at 10 µM (ABL1A): -0.1 °C | ΔTm at 10 µM (CAMK1GA): -0.2 °C | ΔTm at 10 µM (CHEK2A): -0.1 °C | ΔTm at 10 µM (FECH): -0.6 °C | ΔTm at 10 µM (AAK1A): 0.1 °C | ΔTm at 10 µM (CSNK2A1A): -0.1 °C | ΔTm at 10 µM (FGFR3A): 0.1 °C | ΔTm at 10 µM (GSK3BB): 0.1 °C | ΔTm at 10 µM (TLK1A): 0 °C | ΔTm at 10 µM (DAPK1A): 0.1 °C | ΔTm at 10 µM (STK4A): -0.5 °C | ΔTm at 10 µM (MAP2K6A): 0.1 °C | ΔTm at 10 µM (STK17AA): 0 °C | ΔTm at 10 µM (STK10A): 0.4 °C | ΔTm at 10 µM (GPRK5A): -0.2 °C | ΔTm at 10 µM (CDKL1A): 0 °C | ΔTm at 10 µM (PKMYT1A): -0.1 °C | ΔTm at 10 µM (BMP2KA): 0.3 °C | ΔTm at 10 µM (DAPK3A): -0.1 °C | ΔTm at 10 µM (TOPKA): -0.1 °C | ΔTm at 10 µM (FESA): 0.1 °C | ΔTm at 10 µM (HIPK2): 0.3 °C | ΔTm at 10 µM (VRK1A): -0.2 °C | ΔTm at 10 µM (PDK4A): 0 °C | ΔTm at 10 µM (MELKA): 0.1 °C | ΔTm at 10 µM (STK3A): 0.2 °C | ΔTm at 10 µM (MAPK1A): 0.1 °C | ΔTM (RPS6KA1A): 0 K | ΔTm at 10 µM (CAMK1DA): -0.2 °C | remaining activity at 1 µM (FLT3(K663Q)): 100% | remaining activity at 0.1 µM [1]: 64% | remaining activity at 0.1 µM [2]: 76%
